Here are results for 15 compounds from patent US9580430B2, “9H-pyrimido[4,5-B]indoles and related analogs as BET bromodomain inhibitors” (THE REGENTS OF THE UNIVERSITY OF MICHIGAN, priority 2014, dated 2017).

Where two headings read alike, the source gives them in different places.

For experiment [1], the target named is T1, recombinant BRD4 BD1 (Homo sapiens, UniProt O60885).
T1 construct: for recombinant BRD4 BD1 and BRD4 BD2 proteins
Put plainly: Competitive fluorescence-polarization (FP) binding assay, BRD4 BD1. As to IC50 (nM) BRD4 BD1: probe 1.5 nM. As to conditions: for Ki: read-out: Binding affinities (FP) BRD4BD1 Ki. The method, boiled down: (§1)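 FP competition with FAM-labelled probe (ZBA248 or BRD-1F) against preincubated protein/probe complex; BD1 at 10 nM and BD2 at 6 nM final, in 100 mM potassium phosphate pH 6.5, 0.01% Triton X-100. 30 min, room temperature. IC50 by nonlinear regression; Ki also derived, using probe Kd from protein saturation.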

For experiment [2], the target named is T2, recombinant BRD4 BD2 (Homo sapiens, UniProt O60885).
T2 construct: for recombinant BRD4 BD1 and BRD4 BD2 proteins
Put plainly: Competitive fluorescence-polarization (FP) binding assay, BRD4 BD2. As to IC50 (nM) BRD4 BD2: probe 1.5 nM. As to conditions: for Ki: read-out: Binding affinities (FP) BRD4BD2 Ki. The method, boiled down:
as §1

Experiment [3] concerns MOLM-13. Description: Cell growth inhibition, MOLM-13 leukemia cells (CellTiter-Glo). In kind it is cell-based. As to conditions: Homo sapiens, MOLM-13, 96 h; 4 days; read-out: IC50 (nM) MOLM-13 Cell Line (CellTiter-Glo assay). The essentials: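 MOLM-13 leukemia cells treated with compounds; viability read by CellTiter-Glo luminescence after 10-20 min reagent incubation at room temperature. IC50 derived from luminescent signal.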

The test system of experiment [4] is MDA-MB-436. Description: Cell growth inhibition, MDA-MB-436 breast cancer cells (WST-8). Format: cell-based. As to conditions: Homo sapiens, 4 days. The method, boiled down: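 IC50 was computed from WST-8-based cell counting in MDA-MB-436 cells, with absorbance read at 450 nm.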
Experiment [5] concerns LNCaP. Description: Cell growth inhibition, LNCaP prostate cancer cells (Cell-Titer GLO). Format: cell-based. As to conditions: Homo sapiens, read-out: Cellular data LNCaP IC50.
The mark [6] stands for this setting: competitive FP assay, protein 10 nM, probe […], read-out: IC50 (nM) BRD4 BD1.
The mark [7] stands for this setting: competitive FP assay, protein 6 nM, probe […], read-out: IC50 (nM) BRD4 BD2.
Setting [8] is: MDA-MB-436, 96 h, read-out: IC50 (nM) MDA-MB-436 Cell Line (WST assay).
Where [9] appears, read: FP competitive binding, BRD4 BD1, read-out: Binding affinities (FP) BRD4BD1 IC50.
The mark [10] stands for this setting: FP competitive binding, BRD4 BD1.
The mark [11] stands for this setting: FP competitive binding, BRD4 BD2, read-out: Binding affinities (FP) BRD4BD2 IC50.
The mark [12] stands for this setting: FP competitive binding, BRD4 BD2.
[13] abbreviates: 96 h, MDA-MB-436 cells, read-out: Cellular data MDA-MB-436 IC50.

In the case of `COc1cc2c(cc1-c1c(C)noc1C)[nH]c1nc(C)nc(Nc3ccccc3C(C)C)c12` [Cpd. No. 243, 7-(3,5-dimethylisoxazol-4-yl)-N-(2-isopropylphenyl)-6-methoxy-2-methyl-9H-pyrimido[4,5-b]indol-4-amine], the IC50 stood at 15 nM in experiment [1] (setting [6]), 14 nM in experiment [2] (setting [7]), 61 nM in experiment [3] and 162 nM in experiment [4] (setting [8]).

Consider `COc1cc2c(cc1-c1c(C)noc1C)[nH]c1nc(C)nc(Nc3ccnc4ccccc34)c12` [Cpd. No. 247, 7-(3,5-dimethylisoxazol-4-yl)-6-methoxy-2-methyl-N-(quinolin-4-yl)-9H-pyrimido[4,5-b]indol-4-amine], for which the IC50 in experiment [1] (setting [6]) amounted to 165 nM; in experiment [2] (setting [7]), 121 nM; in experiment [3] it was 113 nM; in experiment [4] (setting [8]) it was 115 nM.

`COc1cc2c(cc1-c1c(C)noc1C)[nH]c1nc(C)nc(Nc3c(F)c(C4CC4)nn3C)c12` [Cpd. No. 249, N-(3-cyclopropyl-4-fluoro-1-methyl-1H-pyrazol-5-yl)-7-(3,5-dimethylisoxazol-4-yl)-6-methoxy-2-methyl-9H-pyrimido[4,5-b]indol-4-amine]: the concentration for half-maximal inhibition (IC50) is 29 nM in experiment [1] (setting [6]), 99 nM in experiment [2] (setting [7]), 159 nM in experiment [3] and 302 nM in experiment [4] (setting [8]).

Turning to `CCn1nc(C2CC2)c(F)c1Nc1nc(C)nc2[nH]c3cc(-c4c(C)noc4C)c(OC)cc3c12` [Cpd. No. 250, N-(3-cyclopropyl-1-ethyl-4-fluoro-1H-pyrazol-5-yl)-7-(3,5-dimethylisoxazol-4-yl)-6-methoxy-2-methyl-9H-pyrimido[4,5-b]indol-4-amine], the 50% inhibitory concentration (IC50) in experiment [1] (setting [6]) came out at 12 nM; in experiment [2] (setting [7]), 14 nM; in experiment [3], 21 nM; in experiment [4] (setting [8]), 67 nM.

In the case of `COc1cc2c(cc1-c1c(C)noc1C)[nH]c1nc(C)nc(Nc3cc(C4(C)CC4)nn3C)c12` [Cpd. No. 251, 7-(3,5-dimethylisoxazol-4-yl)-6-methoxy-2-methyl-N-(1-methyl-3-(1-methylcyclopropyl)-1H-pyrazol-5-yl)-9H-pyrimido[4,5-b]indol-4-amine], the IC50 stood at 9 nM in experiment [1] (setting [6]), 5.5 nM in experiment [2] (setting [7]), 11 nM in experiment [3] and 23 nM in experiment [4] (setting [8]).

On to `COc1cc2c(cc1-c1c(C)noc1C)[nH]c1ccnc(Nc3cc(C4CC4)nn3C)c12` [Cpd. No. 255, N-(3-cyclopropyl-1-methyl-1H-pyrazol-5-yl)-7-(3,5-dimethylisoxazol-4-yl)-8-methoxy-5H-pyrido[4,3-b]indol-1-amine], for which the IC50 in experiment [1] (setting [6]) worked out at 10.5 nM; in experiment [2] (setting [7]), 8.5 nM; in experiment [3] it was 12 nM; in experiment [4] (setting [8]) it was 26 nM.

`COc1cc2c(cc1-c1c(C)noc1C)[nH]c1nc(C)nc(Nc3cc(C4CC4)nn3C[C@H](O)CO)c12` [Cpd. No. 281]: the IC50 was 6.1 nM in experiment [1] (setting [9]), 3.6 nM in experiment [2] (setting [11]), 351 nM in experiment [4] (setting [13]) and 0.116 µM in experiment [5]. The Ki in experiment [1] (setting [10]) was determined as 0.002 µM; in experiment [2] (setting [12]) it was 0.0057 µM.

In the case of `COc1cc2c(cc1-c1c(C)noc1C)[nH]c1nc(C)nc(Nc3cc(C4CC4)nn3CC3COCCO3)c12` (stereo not drawn) [Cpd. No. 282, N-(1-((1,4-dioxan-2-yl)methyl)-3-cyclopropyl-1H-pyrazol-5-yl)-7-(3,5-dimethylisoxazol-4-yl)-6-methoxy-2-methyl-9H-pyrimido[4,5-b]indol-4-amine], the IC50 was determined as 6.1 nM in experiment [1] (setting [9]), 0.5 nM in experiment [2] (setting [11]), 33 nM in experiment [4] (setting [13]) and 0.022 µM in experiment [5]. Besides, the figures for the Ki in experiment [1] (setting [10]) and in experiment [2] (setting [12]) were 0.0013 µM and 0.001 µM, respectively.

For the compound `COc1cc2c(cc1-c1c(C)noc1C)[nH]c1nc(C)nc(Nc3cc(C4CC4)nn3C3CCOCC3)c12` [Cpd. No. 283, N-(3-cyclopropyl-1-(tetrahydro-2H-pyran-4-yl)-1H-pyrazol-5-yl)-7-(3,5-dimethylisoxazol-4-yl)-6-methoxy-2-methyl-9H-pyrimido[4,5-b]indol-4-amine], the IC50 is 4.5 nM in experiment [1] (setting [9]), 5 nM in experiment [2] (setting [11]), 19 nM in experiment [4] (setting [13]) and 0.012 µM in experiment [5]. For the same compound, the Ki in experiment [1] (setting [10]) was found to be 0.0006 µM; in experiment [2] (setting [12]), 0.0009 µM.

Turning to `COc1cc2c(cc1-c1c(C)noc1C)[nH]c1nc(C)nc(Nc3cc(C4CC4)nn3CCN3CCOCC3)c12` [Cpd. No. 284, N-(3-cyclopropyl-1-(2-morpholinoethyl)-1H-pyrazol-5-yl)-7-(3,5-dimethylisoxazol-4-yl)-6-methoxy-2-methyl-9H-pyrimido[4,5-b]indol-4-amine], the IC50 in experiment [1] (setting [9]) was found to be 10 nM; in experiment [2] (setting [11]), 10.6 nM; in experiment [4] (setting [13]), 268 nM; in experiment [5], 0.105 µM. Moreover, the Ki was 0.003 µM in experiment [1] (setting [10]) and 0.0026 µM in experiment [2] (setting [12]).

Regarding `COCCc1nc(Nc2cc(C3CC3)nn2C)c2c(n1)[nH]c1cc(-c3c(C)noc3C)c(OC)cc12` [Cpd. No. 287, N-(3-cyclopropyl-1-methyl-1H-pyrazol-5-yl)-7-(3,5-dimethylisoxazol-4-yl)-6-methoxy-2-(2-methoxyethyl)-9H-pyrimido[4,5-b]indol-4-amine], the IC50 in experiment [1] (setting [9]) is 3.1 nM; in experiment [2] (setting [11]), 1.4 nM; in experiment [4] (setting [13]), 58 nM; in experiment [5] it was 0.081 µM. The Ki in experiment [1] (setting [10]) and in experiment [2] (setting [12]) was under 0.001 µM each time.

Take `COCCOCc1nc(Nc2cc(C3CC3)nn2C)c2c(n1)[nH]c1cc(-c3c(C)noc3C)c(OC)cc12` [Cpd. No. 288, N-(3-cyclopropyl-1-methyl-1H-pyrazol-5-yl)-7-(3,5-dimethylisoxazol-4-yl)-6-methoxy-2-((2-methoxyethoxy)methyl)-9H-pyrimido[4,5-b]indol-4-amine]: the IC50 is 4.9 nM in experiment [1] (setting [9]), 1.6 nM in experiment [2] (setting [11]), 13 nM in experiment [4] (setting [13]) and 0.037 µM in experiment [5]. In addition, the Ki in experiment [1] (setting [10]) and in experiment [2] (setting [12]) was under 0.001 µM throughout.

Take `COc1cc2c(cc1-c1c(C)noc1C)[nH]c1nc(C)nc(Nc3nn(C)cc3C(C)C)c12` [compound 78, 7-(3,5-dimethylisoxazol-4-yl)-N-(4-isopropyl-1-methyl-1H-pyrazol-3-yl)-6-methoxy-2-methyl-9H-pyrimido[4,5-b] indol-4-amine]: the half-inhibitory concentration (IC50) was determined as 16 nM in experiment [1] (setting [6]), 63.5 nM in experiment [2] (setting [7]), 97.4 nM in experiment [3] and 271 nM in experiment [4] (setting [8]).

In the case of `COc1cc2c(cc1-c1c(C)noc1C)[nH]c1nc(C)nc(Nc3nnc4ccccn34)c12` [compound 101, N-([1,2,4]triazolo[4,3-a]pyridin-3-yl)-7-(3,5-dimethylisoxazol-4-yl)-6-methoxy-2-methyl-9H-pyrimido[4,5-b]indol-4-amine], the half-maximal inhibitory concentration (IC50) worked out at 978 nM in experiment [1] (setting [6]), 786 nM in experiment [2] (setting [7]), 266 nM in experiment [3] and 811 nM in experiment [4] (setting [8]).

As for `COc1cc2c(cc1-c1c(C)noc1C)[nH]c1nc(C)nc(Nc3cn(C)nc3C(C)(C)O)c12` [compound 269, 2-(4-(7-(3,5-dimethylisoxazol-4-yl)-6-methoxy-2-methyl-9H-pyrimido[4,5-b]indol-4-ylamino)-1-methyl-1H-pyrazol-3-yl)propan-2-ol], the IC50 in experiment [1] (setting [6]) is 21.9 nM; in experiment [2] (setting [7]) it was 35.1 nM; in experiment [3], 97.4 nM; in experiment [4] (setting [8]), 154 nM.
